Source: patent US6627210B2, “Compositions containing α-2-adrenergic agonist components” (Allergan, Inc., priority 2000, dated 2003)
Like-named read-outs stand apart in the source and are kept apart here. Marks after values point to notes of the source that are not given here.

Legend:
[1] = for Solubility: 23° C., stirred 2 days
Protocol: Table 1. It will be understood that concentrations of adrenergic agonists other than 0.5% may be used, so long as they have therapeutic activity. Likewise, the temperature may be varied, for example, solubility curves may be performed at 37° C. (98.6° F.). The formulation vehicle was prepared by first dissolving polyvinyl alcohol (PVA) in water. The PVA was added to approximately ⅓ of the required total amount of purified water with constant stirring. The slurry was stirred for 20-30 minutes and then heated to 80-95° C. with constant stirring. The mixture was removed from the heat source within 1 hour after having reached the temperature of 80-90° C. and stirred for an additional 10 minutes to ensure homogeneity (Part I). The other ingredients of the Ophthalmic Solution, except for Brimonidine tartrate, were dissolved in a separate container with an additional ⅓ of the required total amount of purified water (Part II). The PVA mixture (Part I) was then quantitatively transferred to Part II using several rinse volumes of purified water. The solution was adjusted to final volume with purified water without pH adjustment.
Brimonidine tartrate was weighed and transferred to a 10 mL test tube containing 5 mL of the formulation vehicle described above. The pH of each sample was then adjusted to a desired value using dilute sodium hydroxide and/or dilute hydrochloric acid. The samples were placed in a rack on a stir plate and stirred at high speed to achieve uniform mixing for 2 days; a partition was placed between the rack and the stir plate to prevent any heat diffusion from the stir plate to the samples.
At the end of two days of stirring, the pH value of each sample was measured, and then approximately 1 mL of each sample was placed in a micro centrifuge tube (polypropylene) and centrifuged at 4,000 rpm for 10 minutes. The supernatant was filtered through a 1 μm filter unit (Whatman, 13 mm, PTFE). The first 3-4 drops of the filtrate were discarded; the rest of the filtrate was received and diluted quantitatively with HPLC mobile phase. The dilute sample was then injected directly on the HPLC column (Dupont Zorbax, 250 mm×4.6 mm, 5 μm) for Brimonidine tartrate assay in order to quantify the amount of Brimonidine tartrate. A control of 10.05% Brimonidine tartrate was prepared in the formulation vehicle at pH 6.3-6.5 and assayed before (untreated) and after (treated) centrifugation and filtration. This was done to evaluate the potential loss of Brimonidine tartrate in these two steps of the sample preparation. To ensure reproducibility, the study was repeated on consecutive days.

[2] = composition including chlorite, equilibrated ten days
Protocol: Brimonidine tartrate is added to a test tube containing a composition including chlorite. The test tube was allowed to equilibrate for ten days. Samples obtained from the test tube is analyzed.

[3] = for Solubility of Brimonidine tartrate: 0% CMC
Protocol: The pH-solubility profiles of Brimonidine tartrate in compositions (solutions) containing SECs and oxy-chloro components were determined. Particularly, the effects of sodium carboxymethylcellulose (CMC), an SEC, on the solubility of Brimonidine tartrate at various pH conditions were determined. The various concentrations of CMC tested with Brimonidine tartrate were 0%, 0.056%, 0.17%, 0.5%, 1.5% (w/v), Table III.
The samples tested also contained isotonic components, buffer components, and stabilized chlorine dioxide (Purite™), Table III. Sodium carboxymethyl-cellulose, sodium chloride, potassium chloride, calcium chloride dihydrate, and magnesium chloride hexahydrate were USP grade. Boric acid and sodium borate decahydrate were NF grade.
Each sample (1 through 5) was subjected to a range of pH's from about 7 to about 10. The vials containing the sample solutions were placed on a laboratory rotator and left for equilibration for fifteen days at room temperature (˜21° C.). The sample solutions were filtered using a 25 mm diameter polysulfone cellulose acetate syringe type filter with 0.45 μm pore size. The filtered solutions were assayed for Brimonidine.
Conventional HPLC and detection techniques were used to detect and determine the concentrations of soluble Brimonidine tartrate. […] The solubility is plotted against pH for each CMC concentration. The experimental data points were fitted to a modified Henderson-Hasselbalch equation using a nonlinear least squares routine (Deltagraph version 4.0 DeltaPoint, Inc.), FIG. 1.

What does the source list for “tartrate of 5-bromo-6-(2-imidozolin-2-ylamino) quinoxaline [Brimonidine tartrate]”?
Solubility ([1]; Study 1, pH 5.55, Ophthalmic Solution vehicle, theoretical concentration based on sample weight, solution clear): ≧164.4^b % w/v; Solubility ([1]; Study 1, pH 5.92, Ophthalmic Solution vehicle): 132.6 % w/v; Solubility ([1]; Study 1, pH 6.14, Ophthalmic Solution vehicle): 30.4 % w/v; Solubility ([1]; Study 1, pH 6.57, Ophthalmic Solution vehicle): 7.55 % w/v; Solubility ([1]; Study 1, pH 7.00, Ophthalmic Solution vehicle): 2.69 % w/v; Solubility ([1]; Study 1, pH 7.45, Ophthalmic Solution vehicle): 1.17 % w/v; Solubility ([1]; Study 1, pH 7.83, Ophthalmic Solution vehicle): 0.62 % w/v; Solubility ([1]; Study 2, pH 5.50, Ophthalmic Solution vehicle, theoretical concentration based on sample weight, solution clear): ≧200.6^b % w/v; Solubility ([1]; Study 2, pH 5.92, Ophthalmic Solution vehicle): 160.8 % w/v; Solubility ([1]; Study 2, pH 6.06, Ophthalmic Solution vehicle): 50.1 % w/v; Solubility ([1]; Study 2, pH 6.90, Ophthalmic Solution vehicle): 3.19 % w/v; Solubility ([1]; Study 2, pH 7.40, Ophthalmic Solution vehicle): 1.19 % w/v; Solubility ([1]; Study 2, pH 7.77, Ophthalmic Solution vehicle): 0.63 % w/v; Solubility ([1]; Study 2, pH 7.86, Ophthalmic Solution vehicle): 0.58 % w/v; Solubility ([1]; Study 2, pH 7.88, Ophthalmic Solution vehicle): 0.54 % w/v; pH dependence of solubility ([1]; formulation vehicles, pH range of 5-8): highly pH-dependent; formation of dimers [2]: a portion of the Brimonidine tartrate monomer units conjugated to form dimers; Solubility of Brimonidine tartrate ([3]; pH 6.68, equilibrated fifteen days at room temperature (~21° C.)): 1.4256%; Solubility of Brimonidine tartrate ([3]; pH 7.11, equilibrated fifteen days at room temperature (~21° C.)): 0.2064%; Solubility of Brimonidine tartrate ([3]; pH 7.68, equilibrated fifteen days at room temperature (~21° C.)): 0.0786%; Solubility of Brimonidine tartrate ([3]; pH 8.50, equilibrated fifteen days at room temperature (~21° C.)): 0.0286%; Solubility of Brimonidine tartrate ([3]; pH 10.09, equilibrated fifteen days at room temperature (~21° C.)): 0.0218%; soluble Brimonidine tartrate (FIG. 1) ([3]; pH 7.5, 0% CMC): 1000 ppm; soluble Brimonidine tartrate (FIG. 1) ([3]; pH 7.5, 0.056% CMC): 1300 ppm; soluble Brimonidine tartrate (FIG. 1) ([3]; pH 7.5, 0.17% CMC): 1300 ppm; soluble Brimonidine tartrate (FIG. 1) ([3]; pH 7.5, 0.5% CMC): 1600 ppm; soluble Brimonidine tartrate (FIG. 1) ([3]; pH 7.5, 1.5% CMC): about 1400 ppm
